Laboratory results taken from patent publication US10512642B2, “Therapeutic targeting of myeloproliferative neoplasms by DUSP1 inhibition” (Children's Hospital Medical Center, priority 2015, dated 2019).

Legend:
JAK2 = conditions: peripheral neuropathy and Wernicke encephalopathy; termination from phase III clinical trials; cited from earlier work
BCR/ABL induced leukemia = test: Retroviral bone marrow transduction transplantation CML model; conditions: mouse model of CML
Experimental: Kit^+ cells from mouse bone marrow were transduced with BCR/ABL-IRES-YFP retroviruses. Five thousand GFP^+ cells were plated for in vitro CFU assays, and 40,000 YFP^+ cells were transplanted for in vivo leukemia development in lethally irradiated C57Bl6 mice. […] Data shown are from two independent transplant experiments (n p=0.017). Below, Bar graphs illustrating leukemic burden in mice transplanted with BCR-ABL Kit^+ cells, measured by the level of YFP in peripheral blood as a surrogate for BCR/ABL expression.
For in vivo analysis, mice were transplanted with 40 thousand bone marrow Kit^+ cells expressing BCR/ABL and YFP.
To test c-Fos and Dusp1 as potential drug targets, in vitro and in vivo experiments were performed using small molecule inhibitors of c-Fos and Dusp1 (FIG. 5A). […] Representative data shown are the mean colony number from two independent experiments±S.D. (*=p<0.01, **=p<0.002). […] Data shown are from two independent transplant experiments (n=12; p=0.0285).
Next, in vivo efficacy was examined using a retroviral bone marrow transduction transplantation CML model.

MPN cells = test: Colony forming unit (CFU) assay of MPN cells; format: cell-based, mouse; conditions: in vitro CFU assay
Experimental: To test this, hematopoietic CFU assays were performed using mouse bone marrow-derived Kit+ cells transduced with retroviruses expressing, pMSCV-Ires-GFP (vector), Jak2-V617F-Ires-GFP, Mpl-W515L-ires-GFP, and CSF3R-T618IIres-GFP.
Given the limitations of in vitro assays, performed in vivo experiments were then performed using bone marrow transduction transplantation assays. For in vivo analysis, mice were transplanted with 80-100 thousand bone marrow Kit^+ cells expressing Jak2-V617F-ires-GFP, CSF3R-T618I-Ires-GFP and MSCV-Ires-GFP (vector control). Mice received […] developed fatal MPD with a disease latency of 4-6 months.

K562 cells = test: Survival of K562 cells treated with imatinib +/- cytokines; format: cell-based, human
Experimental: (J) Real-time qPCR analysis illustrating expression of c-FOS, DUSP1, and ZFP36 in primary CML patient peripheral blood mononuclear cells normalized to CD34+ cells from normal volunteers (black bar). Four chronic phase (CP) and three blast crisis (BC) patients were analyzed.
BaF3 cells were generated with tetracycline-inducible expression of BCR/ABL (BaF3-LTBA, FIG. 3A), as well as those with constitutive BCR/ABL expression (BAF3-BCR/ABL, FIG. 3B).

In the case of `Cc1cc(Nc2nc(N[C@@H](C)c3ncc(F)cn3)ncc2Cl)n[nH]1` [AZD1480], the neurological toxicity (JAK2) is listed as “profound neurological toxicities”.

For `O=C1/C(=C/c2ccccc2)C(NC2CCCCC2)c2ccccc21` (stereo not drawn) [BCI, (E)-2-benzylidene-3-(cyclohexylamino)-2,3-dihydro-1H-inden-1-one], the bioavailability (BCR/ABL induced leukemia) was “bioavailable”, the “target inhibition in vivo” value (BCR/ABL induced leukemia) was “inhibits its designated target” and the “targeting of MPN cells” value (MPN cells) was “selective targeting of MPN cells”.

In the case of `Cc1cnc(Nc2ccc(OCCN3CCCC3)cc2)nc1Nc1cccc(S(=O)(=O)NC(C)(C)C)c1` [fedratinib], the neurological toxicity (JAK2) is listed as “profound neurological toxicities”.

For `Cc1ccc(NC(=O)c2ccc(CN3CCN(C)CC3)cc2)cc1Nc1nccc(-c2cccnc2)n1` [imatinib], the “effect of erythropoietin on imatinib response” value (K562 cells) was “erythropoietin conferred imatinib resistance”.
